Laboratory results: patent US20230203098A1, “HUMAN TRANSFERRIN RECEPTOR BINDING PEPTIDE” (priority 2020, published 2023)
Where two headings read alike, the source gives them in different places. Where a SMILES comes first, the peptide text is derived from it. Bridges are numbered along the chain shown (N, C = ends). [ ]: non-standard residue; d: D form. The star is where a group is joined. PEG12 = NCCOCCOCCOCCOCCOCCOCCOCCOCCOCCOCCOCCOCCC(=O)O; NMePhe(3-Cl) = CN[C@@H](Cc1cccc(Cl)c1)C(=O)O; NMeW = CN[C@@H](Cc1c[nH]c2ccccc12)C(=O)O; NMeY = CN[C@@H](Cc1ccc(O)cc1)C(=O)O; NMeF = CN[C@@H](Cc1ccccc1)C(=O)O; PEG4 = NCCOCCOCCOCCOCCC(=O)O; X1 = CN[C@H](CCCCN*)C(=O)O; dOrn = NCCC[C@@H](N)C(=O)O

Molecular target: transferrin receptor (hTfR) (Homo sapiens, UniProt P02786)
Experiment: Intermolecular interaction evaluation test between transferrin receptor (hTfR) and peptide by surface plasmon resonance (SPR)
Type: binding
Outline: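 hTfR captured on Ni-NTA chip then amine-coupled; peptides run single-cycle kinetics at 5–100 nM in 10 mM HEPES pH 8.0, 150 mM NaCl, 0.05% Tween 20, 0.1% BSA, 1.0% DMSO. KD from least-squares curve fitting of sensorgrams.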

[1] = surface plasmon resonance, hTfR, read-out: KD value for hTfR by SPR (class symbol)
[2] = surface plasmon resonance, peptide vs hTfR, read-out: KD value, hTfR binding by SPR (class symbol)
[3] = SPR, hTfR No. 894 variants with PEG12c linker (Table 2), read-out: KD
[4] = binding to hTfR by SPR, Table 2 peptides, read-out: KD value (SPR) class

Sequence of transferrin receptor (hTfR) (P02786 whole entry): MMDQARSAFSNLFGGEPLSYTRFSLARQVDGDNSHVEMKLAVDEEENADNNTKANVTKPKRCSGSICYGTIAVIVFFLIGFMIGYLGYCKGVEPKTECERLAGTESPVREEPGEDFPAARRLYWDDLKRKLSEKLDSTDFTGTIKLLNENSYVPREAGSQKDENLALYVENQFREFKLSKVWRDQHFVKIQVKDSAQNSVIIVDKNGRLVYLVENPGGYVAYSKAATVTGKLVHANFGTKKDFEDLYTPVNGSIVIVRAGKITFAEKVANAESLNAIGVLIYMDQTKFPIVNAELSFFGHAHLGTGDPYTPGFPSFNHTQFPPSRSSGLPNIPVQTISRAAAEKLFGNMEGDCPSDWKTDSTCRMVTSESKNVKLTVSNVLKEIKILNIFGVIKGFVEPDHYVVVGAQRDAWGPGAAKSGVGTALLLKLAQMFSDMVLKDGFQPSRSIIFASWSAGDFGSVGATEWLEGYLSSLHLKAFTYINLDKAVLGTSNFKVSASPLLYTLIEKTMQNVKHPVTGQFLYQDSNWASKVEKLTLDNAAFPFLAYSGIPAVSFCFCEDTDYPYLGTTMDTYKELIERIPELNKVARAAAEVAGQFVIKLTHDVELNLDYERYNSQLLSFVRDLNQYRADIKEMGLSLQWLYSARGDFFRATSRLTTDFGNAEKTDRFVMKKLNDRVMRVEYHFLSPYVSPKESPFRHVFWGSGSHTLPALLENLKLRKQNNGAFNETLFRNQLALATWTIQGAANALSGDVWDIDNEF

`CC[C@H](C)[C@@H]1NC(=O)[C@H](Cc2ccc(OC)cc2)NC(=O)[C@H](Cc2ccc(O)cc2)NC(=O)[C@H](CC(N)=O)NC(=O)[C@H](Cc2c[nH]c3ccccc23)N(C)C(=O)[C@H](C(C)C)NC(=O)[C@H](Cc2cccc(Cl)c2)N(C)C(=O)[C@H](CC(=O)O)NC(=O)[C@H](C)NC(=O)CSC[C@@H](C(=O)NCC(=O)NCC(=O)NCC(=O)NCC(=O)N[C@@H](CO)C(=O)N[C@@H](CO)C(=O)N[C@@H](CS)C(N)=O)NC(=O)[C@H](Cc2ccc(O)cc2)N(C)C(=O)[C@H](Cc2ccccc2)NC(=O)[C@@H](CCCNC(=N)N)NC(=O)[C@H](CCCNC(=N)N)NC(=O)[C@H]([C@@H](C)CC)NC1=O` [compound 236] ({CH2CO}-AD[NMePhe(3-Cl)]V[NMeW]NYY(Me)IIR[dR]F[NMeY]CGGGGSSC-NH2; thioether N-15) gave a Kd of 100 to 1000 nM.
Work on `CC[C@H](C)[C@@H]1NC(=O)[C@H](Cc2ccc(OC)cc2)NC(=O)[C@H](Cc2ccc(O)cc2)NC(=O)[C@H](CC(N)=O)NC(=O)[C@H](Cc2c[nH]c3ccccc23)N(C)C(=O)[C@H](C(C)C)NC(=O)[C@H](Cc2cccc(Cl)c2)N(C)C(=O)[C@H](C(C)C)NC(=O)[C@H](C)NC(=O)CSC[C@@H](C(N)=O)NC(=O)[C@H](Cc2ccc(O)cc2)N(C)C(=O)[C@H](Cc2ccccc2)NC(=O)[C@@H](CCCNC(=N)N)NC(=O)[C@H](CCCNC(=N)N)NC(=O)[C@H]([C@@H](C)CC)NC1=O` [compound 397] yielded a Kd [1] of 1 to 100 nM.
`CC[C@H](C)[C@@H]1NC(=O)[C@H](Cc2ccc(OC)cc2)NC(=O)[C@H](Cc2ccc(O)cc2)NC(=O)[C@H](CC(N)=O)NC(=O)[C@H](Cc2c[nH]c3ccccc23)N(C)C(=O)[C@H](C(C)C)NC(=O)[C@H](Cc2cccc(Cl)c2)N(C)C(=O)[C@H](C(C)C)NC(=O)[C@H](C)NC(=O)CSC[C@@H](C(=O)NCCOCCOCCOCCOCCC(N)=O)NC(=O)[C@H](Cc2ccc(O)cc2)N(C)C(=O)[C@H](Cc2ccccc2)NC(=O)[C@@H](CCCNC(=N)N)NC(=O)[C@H](CCCNC(=N)N)NC(=O)[C@H]([C@H](C)O)NC1=O` [compound 332] gave a Kd [2] of 1 to 100 nM.
With `CC[C@H](C)[C@@H]1NC(=O)[C@H]([C@@H](C)CC)NC(=O)[C@H](Cc2ccc(O)cc2)N(C)C(=O)[C@H](Cc2ccc(O)cc2)NC(=O)[C@H](CC(N)=O)NC(=O)[C@H](Cc2c[nH]c3ccccc23)NC(=O)[C@H](C(C)C)NC(=O)[C@H](Cc2ccccc2)N(C)C(=O)[C@H](C(C)C)NC(=O)[C@H](C)NC(=O)CSC[C@@H](C(=O)NCCOCCOCCOCCOCCOCCOCCOCCOCCOCCOCCOCCOCCC(N)=O)NC(=O)[C@H](Cc2ccc(O)cc2)N(C)C(=O)[C@H](Cc2ccc(O)cc2)NC(=O)[C@H](CCCNC(=N)N)NC(=O)[C@H](CCCNC(=N)N)NC1=O` [compound 120] the Kd [3] was 1 to 100 nM.
Work on `CC[C@H](C)[C@@H]1NC(=O)[C@H](Cc2ccc(OC)cc2)NC(=O)[C@H](Cc2ccc(O)cc2)NC(=O)[C@H](CC(N)=O)NC(=O)[C@H](Cc2c[nH]c3ccccc23)N(C)C(=O)[C@H](C(C)C)NC(=O)[C@H](Cc2cccc(Cl)c2)N(C)C(=O)[C@H](C(C)C)NC(=O)[C@H](C)NC(=O)CSC[C@@H](C(N)=O)NC(=O)[C@H](Cc2ccc(O)cc2)N(C)C(=O)[C@H](Cc2ccccc2)NC(=O)[C@@H](CCCNC(=N)N)NC(=O)[C@H](CCCCN)NC(=O)[C@H]([C@@H](C)CC)NC1=O` [compound 373] yielded a Kd [1] of 1 to 100 nM.
With `CC[C@H](C)[C@@H]1NC(=O)[C@H](Cc2ccc(OC)cc2)NC(=O)[C@H](Cc2ccc(O)cc2)NC(=O)[C@H](CC(N)=O)NC(=O)[C@H](Cc2c[nH]c3ccccc23)N(C)C(=O)[C@H](C(C)C)NC(=O)[C@H](Cc2cccc(Cl)c2)N(C)C(=O)[C@H](C(C)C)NC(=O)[C@H](C)NC(=O)CSC[C@@H](C(N)=O)NC(=O)[C@H](Cc2ccc(O)cc2)N(C)C(=O)[C@H](Cc2ccccc2)NC(=O)[C@@H](CCCNC(=N)N)NC(=O)[C@H](CCCNC(=N)N)NC(=O)[C@H](CCC(=O)NCCCC[C@@H](NC)C(=O)O)NC1=O` [compound 346] ({CH2CO}-AV[NMePhe(3-Cl)]V[NMeW]NYY(Me)IE(X1)R[dR]F[NMeY]C-NH2; thioether N-15) the Kd [2] was 1 to 100 nM.
`CC[C@H](C)[C@@H]1NC(=O)[C@H](Cc2ccc(OC)cc2)NC(=O)[C@H](Cc2ccc(O)cc2)NC(=O)[C@H](CC(N)=O)NC(=O)[C@H](Cc2c[nH]c3ccccc23)N(C)C(=O)[C@H](C(C)C)NC(=O)[C@H](Cc2cccc(Cl)c2)N(C)C(=O)[C@H](C(C)C)NC(=O)[C@H](C)NC(=O)CSC[C@@H](C(=O)NCCOCCOCCOCCOCCC(N)=O)NC(=O)[C@H](Cc2ccc(O)cc2)N(C)C(=O)[C@H](Cc2ccccc2)NC(=O)[C@@H](CCCNC(=N)N)NC(=O)[C@@H](CCCN)NC(=O)[C@H]([C@@H](C)CC)NC1=O` [compound 368] ({CH2CO}-AV[NMePhe(3-Cl)]V[NMeW]NYY(Me)II[dOrn][dR]F[NMeY]C[PEG4]-NH2; thioether N-15) gave a Kd [1] of 1 to 100 nM.
`CC[C@H](C)[C@@H]1NC(=O)[C@H](Cc2ccc(O)cc2)NC(=O)[C@H](Cc2ccc(O)cc2)NC(=O)[C@H](CC(N)=O)NC(=O)[C@H](Cc2c[nH]c3cc(F)ccc23)NC(=O)[C@H](C(C)C)NC(=O)[C@H](Cc2ccccc2)N(C)C(=O)[C@H](C(C)C)NC(=O)[C@H](C)NC(=O)CSC[C@@H](C(N)=O)NC(=O)[C@H](Cc2ccc(O)cc2)N(C)C(=O)[C@H](Cc2ccc(O)cc2)NC(=O)[C@H](CCCNC(=N)N)NC(=O)[C@H](CCCNC(=N)N)NC(=O)[C@H]([C@@H](C)CC)NC1=O` [compound 270] was tested, and the Kd [4] was 1 to 100 nM.
In the case of `CC[C@H](C)[C@@H]1NC(=O)[C@H](Cc2ccc(OC)cc2)NC(=O)[C@H](Cc2ccc(O)cc2)NC(=O)[C@H](CC(N)=O)NC(=O)[C@H](Cc2c[nH]c3ccccc23)N(C)C(=O)[C@H](C(C)C)NC(=O)[C@H](Cc2cccc(Cl)c2)N(C)C(=O)[C@H](C(C)C)NC(=O)[C@H](C)NC(=O)CSC[C@@H](C(=O)NCC(=O)NCC(=O)NCC(=O)NCC(=O)N[C@@H](CO)C(=O)N[C@@H](CO)C(=O)N[C@@H](CS)C(N)=O)NC(=O)[C@H](Cc2ccc(O)cc2)N(C)C(=O)[C@H](Cc2ccccc2)NC(=O)[C@@H](CCCNC(=N)N)NC(=O)[C@H](CCCNC(=N)N)NC(=O)[C@H](CCCCCN)NC1=O` [compound 341], the Kd is reported as 1 to 100 nM.
Work on `CC[C@H](C)[C@@H]1NC(=O)[C@H](Cc2ccc(OC)cc2)NC(=O)[C@H](Cc2ccc(O)cc2)NC(=O)[C@H](CC(N)=O)NC(=O)[C@H](Cc2c[nH]c3ccccc23)N(C)C(=O)[C@H](C(C)C)NC(=O)[C@H](Cc2cccc(Cl)c2)N(C)C(=O)[C@H](C(C)C)NC(=O)[C@H](CCC(=O)O)NC(=O)CSC[C@@H](C(N)=O)NC(=O)[C@H](Cc2ccc(O)cc2)N(C)C(=O)[C@H](Cc2ccccc2)NC(=O)[C@H](CCCNC(=N)N)NC(=O)[C@H](CCCNC(=N)N)NC(=O)[C@H]([C@@H](C)CC)NC1=O` [compound 217] yielded a Kd (SPR, peptides, linker-added peptides and FITC conjugates, Patent ID 203-230, read-out: KD) of 1 to 100 nM.
`CC[C@H](C)[C@@H]1NC(=O)[C@H](Cc2ccc(O)cc2)NC(=O)[C@H](Cc2ccc(O)cc2)NC(=O)[C@H](CC(N)=O)NC(=O)[C@H](Cc2c[nH]c3ccccc23)N(C)C(=O)[C@H](C(C)C)NC(=O)[C@H](Cc2ccccc2)N(C)C(=O)[C@H](C(C)C)NC(=O)[C@H](C)NC(=O)CSC[C@@H](C(=O)NCC(=O)NCC(=O)N[C@@H](CCCNC(=N)N)C(=O)N[C@@H](CO)C(=O)N[C@@H](CCC(=O)O)C(=O)N[C@@H](CO)C(=O)N[C@@H](CCCCNC(=O)C2CCC(CN3C(=O)C=CC3=O)CC2)C(N)=O)NC(=O)[C@H](Cc2ccc(O)cc2)N(C)C(=O)[C@H](Cc2ccc(O)cc2)NC(=O)[C@H](CCCNC(=N)N)NC(=O)[C@H](CCCNC(=N)N)NC(=O)[C@H]([C@@H](C)CC)NC1=O` (some centres unmarked) [compound 199] gave a Kd (hTfR binding by SPR, hTfR No. 894 variant peptides, linker-added peptides and payload conjugates (Table 2), read-out: KD value obtained from the SPR measurement) of 1 to 100 nM.
In the case of `CC[C@H](C)[C@@H]1NC(=O)[C@H](Cc2ccc(O)cc2)NC(=O)[C@H](Cc2ccc(O)cc2)NC(=O)[C@H](CC(N)=O)NC(=O)[C@H](Cc2c[nH]c3ccccc23)N(C)C(=O)[C@H](C(C)C)NC(=O)[C@H](Cc2cccc(Cl)c2)N(C)C(=O)[C@@H]2CCC(=O)NCCCCC[C@H](NC(=O)[C@H]([C@@H](C)CC)NC1=O)C(=O)N[C@@H](CCCNC(=N)N)C(=O)N[C@@H](Cc1ccc(O)cc1)C(=O)N(C)[C@@H](Cc1ccc(O)cc1)C(=O)N[C@H](C(N)=O)CSCC(=O)N[C@@H](C)C(=O)N2` [compound 411], the Kd (surface plasmon resonance, peptide vs hTfR, read-out: KD value for hTfR by SPR (class symbol)) is reported as 1 to 100 nM.
Compound `CC[C@H](C)[C@@H]1NC(=O)[C@H](Cc2ccc(O)cc2)NC(=O)[C@H](Cc2ccc(O)cc2)NC(=O)[C@H](CC(N)=O)NC(=O)[C@H](Cc2c[nH]c3ccc(F)cc23)NC(=O)[C@H](C(C)C)NC(=O)[C@H](Cc2ccccc2)N(C)C(=O)[C@H](C(C)C)NC(=O)[C@H](C)NC(=O)CSC[C@@H](C(N)=O)NC(=O)[C@H](Cc2ccc(O)cc2)N(C)C(=O)[C@H](Cc2ccc(O)cc2)NC(=O)[C@H](CCCNC(=N)N)NC(=O)[C@H](CCCNC(=N)N)NC(=O)[C@H]([C@@H](C)CC)NC1=O` [compound 269] has a Kd [4] of 1 to 100 nM.
`CC[C@H](C)[C@@H]1NC(=O)[C@H](Cc2ccc(O)cc2)NC(=O)[C@H](C)NC(=O)[C@H](CC(N)=O)NC(=O)[C@H](Cc2c[nH]c3ccccc23)NC(=O)[C@H](C(C)C)NC(=O)[C@H](Cc2ccccc2)N(C)C(=O)[C@H](C(C)C)NC(=O)[C@H](C)NC(=O)CSC[C@@H](C(=O)NCCOCCOCCOCCOCCOCCOCCOCCOCCOCCOCCOCCOCCC(N)=O)NC(=O)[C@H](Cc2ccc(O)cc2)N(C)C(=O)[C@H](Cc2ccc(O)cc2)NC(=O)[C@H](CCCNC(=N)N)NC(=O)[C@H](CCCNC(=N)N)NC(=O)[C@H]([C@@H](C)CC)NC1=O` [compound 140] ({CH2CO}-AV[NMeF]VWNAYIIRRY[NMeY]C[PEG12]-NH2; thioether N-15) gave a Kd [3] of 1 to 100 nM.
